Results from patent US20220401514A1, “ANTIMICROBIAL, BACTERIOPHAGE-DERIVED POLYPEPTIDES AND THEIR USE AGAINST GRAM-NEGATIVE AND ACID-FAST BACTERIA” (CONTRAFECT CORPORATION, priority 2019, published 2022).
Read-outs that look alike come from different tables or passages of the source.

Key:
[1] = system: P. aeruginosa strain CFS-1292; assay: MIC in presence of mouse, rat, rabbit and human serum ([…] each); assay type: cell-based, Pseudomonas aeruginosa; conditions: P. aeruginosa CFS-1292
Experimental: The activity of several Chp peptides against P. aeruginosa strain CFS-1292 in animal serum was evaluated. […] Rat, mouse, and rabbit serum were all obtained from pooled gender samples.

Klebsiella pneumoniae [2] = assay type: cell-based
Experimental: (§1) Determination of Minimal Inhibitory Concentrations (MIC).
(§2) Additional MIC testing was performed for several peptides against the ESKAPE pathogens Escherichia coli, Enterobacter cloacae, Klebsiella pneumoniae, and Acinetobacter baumannii, in CAA supplemented with human serum (Table D).

M. avium = assay: 45 hr MIC against M. avium (NTM); assay type: cell-based, Mycobacterium avium; conditions: M. avium Chester ATCC 700898
[3] = system: Pseudomonas aeruginosa, Escherichia coli, Enterobacter cloacae, Klebsiella pneumoniae, and Acinetobacter baumannii; assay: MIC against a range of Gram-negative organisms (statements covering several species); assay type: cell-based; conditions: Tables 40-44 isolates
Experimental: as §1, §2

[4] = system: P. aeruginosa strain CFS-1292; assay: MIC at pH 6, pH 7 and pH 8; assay type: cell-based, Pseudomonas aeruginosa
Experimental: The Chp peptides were further evaluated at varying pH levels. The MIC values were determined at pH 6, pH 7, and pH 8 for 18 different Chp peptides against P. aeruginosa strain CFS-1292. […]

[5] = system: P. aeruginosa strain CFS-1292; assay: MIC in presence and absence of NaCl (140 mM); assay type: cell-based, Pseudomonas aeruginosa
Experimental: Certain Chp peptides were evaluated over a range of physiological NaCl levels and pH values, and were further evaluated for activity in the presence of various divalent cations.

[6] = Stability assessment in 100% CAA; assay type: in vitro ADME; design: unit not given beside the values
Experimental: Stability was assessed after incubation in 100% human serum at 37° C. after 10 minutes, 1 hour, and 2 hours.
Stability assessment was further conducted in 100% CAA and rabbit serum using the same methodology discussed above.

[7] = system: P. aeruginosa strain CFS-1292; assay: MIC in presence of divalent cations (calcium chloride, magnesium sulfate); assay type: cell-based, Pseudomonas aeruginosa
Experimental: Next, Chp peptides were evaluated in the presence of different divalent cations. […]; (2) in the presence of 2 mM calcium chloride alone; (3) in the presence of 1 mM magnesium sulfate alone; and (4) in the presence of both 2 mM calcium chloride and 1 mM magnesium sulfate. […]

M. smegmatis = assay: 45 hr MIC against M. smegmatis (NTM), Mueller Hinton broth; assay type: cell-based, Mycobacterium smegmatis
M. intracellulare = assay: 45 hr MIC against M. intracellulare (NTM); assay type: cell-based, Mycobacterium intracellulare; conditions: M. intracellulare (Cuttino and McCabe) Runyon ATCC 13950
M. scrofulaceum = assay: 45 hr MIC against M. scrofulaceum (NTM); assay type: cell-based, Mycobacterium scrofulaceum; conditions: M. scrofulaceum Prissick and Masson ATCC 19981
S. maltophilia = assay: MIC against S. maltophilia isolates; assay type: cell-based, Stenotrophomonas maltophilia
Outline: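 MIC in μg/mL for Chp peptides across several S. maltophilia isolates, n denoting the number of isolates tested.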

Escherichia coli = assay: microbe, parasite or virus in culture; assay type: cell-based
Outline: (§3)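 Peptide MICs were determined by growth inhibition in CAA medium supplemented with human serum.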

Enterobacter cloacae = assay: microbe, parasite or virus in culture; assay type: cell-based
Outline: as §3

Klebsiella pneumoniae [8] = assay: microbe, parasite or virus in culture; assay type: cell-based; conditions: CAA without human serum
M. fortuitum = assay: 45 hr MIC against M. fortuitum (NTM); assay type: cell-based, Mycobacterium fortuitum; conditions: M. fortuitum subsp. Fortuitum da Costa Cruz. ATCC 6841
Acinetobacter baumannii = assay: microbe, parasite or virus in culture; assay type: cell-based
Pseudomonas aeruginosa = assay: microbe, parasite or virus in culture; assay type: cell-based; conditions: for MIC: CAA without human serum
[9] = system: P. aeruginosa strain CFS-1292; assay: MIC in presence and absence of Survanta pulmonary surfactant; assay type: cell-based, Pseudomonas aeruginosa
[10] = K. pneumoniae isolates (n per peptide in table)
[11] = S. maltophilia isolates (n per peptide in table)
[12] = E. coli isolates (n per peptide in table)
[13] = E. cloacae isolates (n per peptide in table)
[14] = A. baumannii isolates (n per peptide in table)
[15] = P. aeruginosa isolates (n per peptide in table)

MARRRYRLPRRRSRRLFSRTALRMHPRNRLRRIMRGGIRF [Chp6]
MIC BALB/C Mouse Serum ([1]; BALB/C mouse serum […]): 32 µg/mL
MIC CAA ([1]; CAA): 1 µg/mL
MIC New Zealand White Rabbit Serum ([1]; New Zealand White rabbit serum […]): 4 µg/mL
MIC Sprague Dawley Rat Serum ([1]; Sprague Dawley rat serum […]): 4 µg/mL
MIC Human Serum ([1]; human serum […]): 1 µg/mL
MIC50 (Klebsiella pneumoniae [2]; [10]): 0.5 µg/mL
MIC100 (Klebsiella pneumoniae [2]; [10]): 1 µg/mL
MIC Range (Klebsiella pneumoniae [2]; [10]): 0.125 to 1 µg/mL
MIC (Klebsiella pneumoniae [2]; Klebsiella pneumoniae HM-44, CAA supplemented with human serum): 0.125 µg/mL
45 hr MIC (M. avium): 1 µg/mL
activity (good = MIC100 of ≤4) against all of P. aeruginosa, K. pneumoniae, A. baumannii, E. cloacae, and E. coli [3]: good activity
MIC ([4]; CAA media (pH 7)): 1 µg/mL
MIC ([4]; pH 6): 2 µg/mL
MIC ([4]; pH 7): 0.25 µg/mL
MIC ([4]; pH 8): 1 µg/mL
Fold change in MIC ([5]; CAA + 140 mM NaCl versus CAA without added NaCl): 1
MIC, CAA + 140 mM NaCl ([5]; CAA + 140 mM NaCl, P. aeruginosa CFS-1292): 0.5 µg/mL
MIC, CAA (no added NaCl) ([5]; CAA, no added NaCl, P. aeruginosa CFS-1292): 0.5 µg/mL
MIC (100% CAA) [6]: 0.25
MIC ([7]; CAA media + 1 mM MgSO4): 1 µg/mL
MIC ([7]; CAA media + 2 mM CaCl2): 0.5 µg/mL
MIC ([7]; CAA media + + 1 mM MgSO4): 1 µg/mL
MIC ([7]; CAA media alone): 1 µg/mL
45 hr MIC (M. smegmatis; M. smegmatis MC^2 155, Run #1): 4 µg/mL
45 hr MIC (M. smegmatis; M. smegmatis MC^2 155, Run #2): 4 µg/mL
45 hr MIC (M. intracellulare): 0.5 µg/mL
45 hr MIC (M. scrofulaceum): 2 µg/mL
MIC50 (S. maltophilia; [11]): 0.5 µg/mL
MIC100 (S. maltophilia; [11]): 1 µg/mL
MIC Range (S. maltophilia; [11]): 0.25 to 1 µg/mL
activity against S. maltophilia (S. maltophilia; Table 45 isolates): active
MIC (Escherichia coli; E. coli (ATCC 25922, MIC control strain), RSC 813, CAA without human serum): 2 µg/mL
MIC (Escherichia coli; E. coli (HM346, colon, Crohn's disease), RSC 1212, CAA without human serum): 2 µg/mL
MIC50 (Escherichia coli; [12]): 0.5 µg/mL
MIC100 (Escherichia coli; [12]): 1 µg/mL
MIC Range (Escherichia coli; [12]): 0.25 to 2 µg/mL
MIC (Escherichia coli; Escherichia coli ATCC 25922, CAA supplemented with human serum): 1 µg/mL
MIC50 (Enterobacter cloacae; [13]): 0.5 µg/mL
MIC100 (Enterobacter cloacae; [13]): 1 µg/mL
MIC Range (Enterobacter cloacae; [13]): 0.25 to 2 µg/mL
MIC (Enterobacter cloacae; Enterobacter cloacae (ATCC 13047, MIC control strain), RSC 1240, CAA without human serum): 4 µg/mL
MIC (Enterobacter cloacae; Enterobacter cloacae ATCC 13047, CAA supplemented with human serum): 2 µg/mL
MIC (Klebsiella pneumoniae [8]; Klebsiella pneumoniae (ATCC 10031, MIC control strain), RSC 814): 4 µg/mL
MIC (Klebsiella pneumoniae [8]; Klebsiella pneumoniae (g2-3 HM35K), RSC 1138): 4 µg/mL
MIC (Klebsiella pneumoniae [8]; Klebsiella sp. (HM-44; colon, Crohn's disease), RSC 1139): 1 µg/mL
MIC (Klebsiella pneumoniae [8]; Klebsiella spp. (HM-223; gut of Crohn's disease patient), RSC 1131): 4 µg/mL
45 hr MIC (M. fortuitum): 4 µg/mL
MIC50 (Acinetobacter baumannii; [14]): 0.25 µg/mL
MIC100 (Acinetobacter baumannii; [14]): 0.5 µg/mL
MIC Range (Acinetobacter baumannii; [14]): 0.125 to 1 µg/mL
MIC (Acinetobacter baumannii; Acinetobacter baumannii (clinical isolate HSS), RSC 30, CAA without human serum): 2 µg/mL
MIC (Acinetobacter baumannii; Acinetobacter baumannii (clinical isolate HSS), RSC 32, CAA without human serum): 2 µg/mL
MIC (Acinetobacter baumannii; Acinetobacter baumannii ATCC BAA 747, CAA supplemented with human serum): 1 µg/mL
MIC (Pseudomonas aeruginosa; P. aeruginosa 453 (Human clinical isolate, HSS), RSC 1292): 2 µg/mL
MIC (Pseudomonas aeruginosa; P. aeruginosa (ATCC 14213, human hip wound), RSC 1111): 4 µg/mL
MIC (Pseudomonas aeruginosa; P. aeruginosa (ATCC 15152, abscess in middle ear), RSC 1110): 2 µg/mL
MIC (Pseudomonas aeruginosa; P. aeruginosa (ATCC 15692, infected wound), RSC 489): 2 µg/mL
MIC (Pseudomonas aeruginosa; P. aeruginosa (ATCC 15692, infected wound), RSC 1115): 4 µg/mL
MIC (Pseudomonas aeruginosa; P. aeruginosa (ATCC 17646, human liver abscess), RSC 1109): 4 µg/mL
MIC (Pseudomonas aeruginosa; P. aeruginosa (ATCC 19142, tracheobronchial secretion), RSC 1108): 2 µg/mL
MIC (Pseudomonas aeruginosa; P. aeruginosa (ATCC 25102, bacteriophage host), RSC 1114): 2 µg/mL
MIC (Pseudomonas aeruginosa; P. aeruginosa (ATCC 27853, MIC control strain), RSC 815): 1 µg/mL
MIC (Pseudomonas aeruginosa; P. aeruginosa (ATCC BAA-27, lab strain), RSC 1113): 2 µg/mL
MIC (Pseudomonas aeruginosa; P. aeruginosa (PAO1, alternate source, HER1018), RSC 490): 1 µg/mL
MIC50 (Pseudomonas aeruginosa; [15]): 1 µg/mL
MIC100 (Pseudomonas aeruginosa; [15]): 1 µg/mL
MIC Range (Pseudomonas aeruginosa; [15]): 0.5 to 1 µg/mL
MIC ([9]; CAA media + 0.19 mg/mL Survanta): 0.5 µg/mL
MIC ([9]; CAA media + […] Survanta): 0.5 µg/mL
MIC ([9]; CAA media alone): 0.5 µg/mL
